Laboratory results from patent publication US9115152B2, “Alkylated piperazine compounds” (Genentech, Inc., priority 2011, dated 2015).

Test system: production of CD69 by B lymphocytes in human whole blood
Assay: CD69 Whole Blood Assay (CD69 Hu Blood FACS)
Type: cell-based
Conditions: stimulated with goat F(ab')2 anti-human IgM, 20 hours, CD69 positive of CD20 positive cells; for IC70: Lymphocyte; for CD69 Hu Blood FACS (IC70): Table 2, unit inferred
Excerpt: A CD69 Whole Blood Assay can be conducted on Formula I compounds to determine the ability of compounds to inhibit the production of CD69 by B lymphocytes in human whole blood activated by crosslinking surface IgM with goat F(ab′)2 anti-human IgM (Example 907). CD69 is a type II C-type lectin involved in lymphocyte migration and cytokine secretion. CD69 expression represents one of the earliest available indicators of leukocyte activation and its rapid induction occurs through transcriptional activation (Vazquez et al (2009) Jour. of Immunology Published Oct. 19, 2009, doi:10.4049/jimmunol.0900839). Concentration-dependent inhibition of antigen receptor stimulation by selective Btk inhibitors induces cell surface expression of the lymphocyte activation marker CD69 (Honigberg et al (2010) Proc. Natl. Acad. Sci. 107(29):13075-13080). Thus, CD69 inhibition by selective Btk inhibitors may be correlated with therapeutic efficacy of certain B-cell disorders.
Human blood is obtained from healthy volunteers, with the following restrictions: 1 week drug-free, non-smokers. Blood (approximately 20 mls to test 8 compounds) is collected by venipuncture into Vacutainer® (Becton, Dickinson and Co.) tubes with sodium heparin.
Solutions of Formula I compounds at 10 mM in DMSO are diluted 1:10 in 100% DMSO, then are diluted by three-fold serial dilutions in 100% DMSO for a ten point dose-response curve. The compounds are further diluted 1:10 in PBS and then an aliquot of 5.5 μl of each compound is added in duplicate to a 2 ml 96-well plate; 5.5 μl of 10% DMSO in PBS is added as control and no-stimulus wells. Human whole blood—HWB (100 μl) is added to each well. After mixing the plates are incubated at 37° C., 5% CO2, 100% humidity for 30 minutes. Goat F(ab′)2 anti-human IgM (10 μl of a 500 μg/ml solution, 50 μg/ml final) is added to each well (except the no-stimulus wells) with mixing and the plates are incubated for an additional 20 hours. At the end of the 20 hour incubation, samples are incubated with fluorescent labeled antibodies for 30 minutes, at 37° C., 5% CO2, 100% humidity. Include induced control, unstained and single stains for compensation adjustments and initial voltage settings. Samples are then lysed with PharM Lyse™ (BD Biosciences Pharmingen) according to the manufacturer's instructions. Samples are then transferred to a 96 well plate suitable to be run on the BD Biosciences HTS 96 well system on the LSRII machine. Data acquired and Mean Fluorescence Intensity values were obtained using BD Biosciences DIVA Software. Results are initially analyzed by FACS analysis software (Flow Jo).

| SMILES | IC70 [nM] | CD69 Hu Blood FACS (IC70) [nM] |
| --- | --- | --- |
| C[C@H]1CN(C2COC2)CCN1c1ccc(Nc2cc(-c3cc(F)cc(N4CCc5c(cc6n5CCCC6)C4=O)c3CO)cn(C)c2=O)nc1 [Compound 101, (S)-2-(5-fluoro-2-(hydroxymethyl)-3-(1-methyl-5-(5-(2-methyl-4-(oxetan-3-yl)piperazin-1-yl)pyridin-2-ylamino)-6-oxo-1,6-dihydropyridin-3-yl)phenyl)-3,4,6,7,8,9-hexahydropyrido[3,4-b]indolizin-1(2H)-one] | 33.8 | – |
| C[C@H]1CN(C2COC2)CCN1c1ccc(Nc2cc(-c3cc(F)cc(-n4ncc5c6c(sc5c4=O)CCCC6)c3CO)cn(C)c2=O)nc1 [Compound 102, (S)-5-[5-fluoro-2-(hydroxymethyl)-3(1-methyl-5-(5-(2-methyl-4-(oxetan-3-yl)piperazin-1-yl)pyridin-2-ylamino)-6-oxo-1,6-dihydropyridin-3-yl)phenyl]-8-thia-4,5-diazatricyclo[7.4.0.02,7]trideca-1(9),2(7),3-trien-6-one] | 31 | – |
| C[C@H]1CN(C2COC2)CCN1c1ccc(Nc2cc(-c3cc(F)cc(N4CCn5c(cc6c5CC(C)(C)C6)C4=O)c3CO)cn(C)c2=O)nc1 [Compound 103, (2S)-10-[5-fluoro-2-(hydroxymethyl)-3-[1-methyl-5-({5-[2-methyl-4-(oxetan-3-yl)piperazin-1-yl]pyridine-2-yl}amino)-6-oxo-1,6-dihydropyridin-3-yl]phenyl]-4,4-dimethyl-1,10-diazatricyclo[6.4.0.02,6]dodeca-2(6),7-dien-9-one] | 14.5 | – |
| C[C@@H]1CN(c2ccc(Nc3cc(-c4cc(F)cc(N5CCn6c(cc7c6CCCC7)C5=O)c4CO)cn(C)c3=O)nc2)[C@@H](C)CN1C1COC1 [Compound 104, 2-(3-(5-(5-((2S,5R)-2,5-dimethyl-4-(oxetan-3-yl)piperazin-1-yl)pyridin-2-ylamino)-1-methyl-6-oxo-1,6-dihydropyridin-3-yl)-5-fluoro-2-(hydroxymethyl)phenyl)-3,4,6,7,8,9-hexahydropyrazino[1,2-a]indol-1(2H)-one] | 15 | – |
| CC[C@H]1CN(C2COC2)CCN1c1ccc(Nc2cc(-c3cc(F)cc(N4CCn5c(cc6c5CCCC6)C4=O)c3CO)cn(C)c2=O)nc1 [Compound 105] | 8 | – |
| C[C@H]1CN(C2COC2)CCN1c1ccc(Nc2cc(-c3cc(F)cc(N4CCn5c(cc6c5CCCC6)C4=O)c3CO)cn(C)c2=O)nc1 [Compound 106, (S)-2-(5-fluoro-2-(hydroxymethyl)-3-(1-methyl-5-(5-(2-methyl-4-(oxetan-3-yl)piperazin-1-yl)pyridin-2-ylamino)-6-oxo-1,6-dihydropyridin-3-yl)phenyl)-3,4,6,7,8,9-hexahydropyrazino[1,2-a]indol-1(2H)-one] | 19 | – |
| C[C@H]1CN(c2ccc(Nc3cc(-c4cc(F)cc(N5CCn6c(cc7c6CCCC7)C5=O)c4CO)cn(C)c3=O)nc2)CCN1C [Compound 107, (S)-2-(3-(5-(5-(3,4-dimethylpiperazin-1-yl)pyridin-2-ylamino)-1-methyl-6-oxo-1,6-dihydropyridin-3-yl)-5-fluoro-2-(hydroxymethyl)phenyl)-3,4,6,7,8,9-hexahydropyrazino[1,2-a]indol-1(2H)-one] | 44 | – |
| C[C@@H]1CN(c2ccc(Nc3cc(-c4cc(F)cc(N5CCn6c(cc7c6CCCC7)C5=O)c4CO)cn(C)c3=O)nc2)CCN1C [Compound 108, (R)-2-(3-(5-(5-(3,4-dimethylpiperazin-1-yl)pyridin-2-ylamino)-1-methyl-6-oxo-1,6-dihydropyridin-3-yl)-5-fluoro-2-(hydroxymethyl)phenyl)-3,4,6,7,8,9-hexahydropyrazino[1,2-a]indol-1(2H)-one] | 23 | – |
| C[C@@H]1CN(C)CCN1c1ccc(Nc2cc(-c3cc(F)cc(N4CCn5c(cc6c5CCCC6)C4=O)c3CO)cn(C)c2=O)nc1 [Compound 109, (R)-2-(3-(5-(5-(2,4-dimethylpiperazin-1-yl)pyridin-2-ylamino)-1-methyl-6-oxo-1,6-dihydropyridin-3-yl)-5-fluoro-2-(hydroxymethyl)phenyl)-3,4,6,7,8,9-hexahydropyrazino[1,2-a]indol-1(2H)-one] | 29 | – |
| C[C@H]1CN(C)CCN1c1ccc(Nc2cc(-c3cc(F)cc(N4CCn5c(cc6c5CCCC6)C4=O)c3CO)cn(C)c2=O)nc1 [Compound 110, (S)-2-(3-(5-(5-(2,4-dimethylpiperazin-1-yl)pyridin-2-ylamino)-1-methyl-6-oxo-1,6-dihydropyridin-3-yl)-5-fluoro-2-(hydroxymethyl)phenyl)-3,4,6,7,8,9-hexahydropyrazino[1,2-a]indol-1(2H)-one] | 6 | – |
| CN1CCN(c2ccc(Nc3cc(-c4cc(F)cc(N5CCn6c(cc7c6CCCC7)C5=O)c4CO)cn(C)c3=O)nc2)CC1CF (stereo not drawn) [Compound 111, 2-(5-fluoro-3-(5-(5-(3-(fluoromethyl)-4-methylpiperazin-1-yl)pyridin-2-ylamino)-1-methyl-6-oxo-1,6-dihydropyridin-3-yl)-2-(hydroxymethyl)phenyl)-3,4,6,7,8,9-hexahydropyrazino[1,2-a]indol-1(2H)-one] | 92 | – |
| CN1C2COCC1CN(c1ccc(Nc3cc(-c4cc(F)cc(N5CCn6c(cc7c6CCCC7)C5=O)c4CO)cn(C)c3=O)nc1)C2 [Compound 112, 2-(5-fluoro-2-(hydroxymethyl)-3-(1-methyl-5-(5-(9-methyl-7-oxa-3,9-diaza-bicyclo[3.3.1]nonan-3-yl)pyridin-2-ylamino)-6-oxo-1,6-dihydropyridin-3-yl)phenyl)-3,4,6,7,8,9-hexahydropyrazino[1,2-a]indol-1(2H)-one] | 170 | – |
| C[C@@H]1CN(c2ccc(Nc3cc(-c4cc(F)cc(N5CCc6c(cc7n6CCCC7)C5=O)c4CO)cn(C)c3=O)nc2)[C@@H](C)CN1C1COC1 [Compound 126, 2-[3-[5-[[5-[(2S,5R)-2,5-dimethyl-4-(oxetan-3-yl)piperazin-1-yl]-2-pyridyl]amino]-1-methyl-6-oxo-3-pyridyl]-5-fluoro-2-(hydroxymethyl)phenyl]-3,4,6,7,8,9-hexahydropyrido[3,4-b]indolizin-1-one] | – | 57.1 |
| C[C@H]1CN(C2COC2)CCN1c1ccc(Nc2cc(-c3cc(F)cc(-n4ncc5c(cc6n5CCCC6)c4=O)c3CO)cn(C)c2=O)nc1 [Compound 127, 2-[5-fluoro-2-(hydroxymethyl)-3-[1-methyl-5-[[5-[(2S)-2-methyl-4-(oxetan-3-yl)piperazin-1-yl]-2-pyridyl]amino]-6-oxo-3-pyridyl]phenyl]-6,7,8,9-tetrahydropyridazino[4,5-b]indolizin-1-one] | – | 51 |
| C[C@H]1CN(C2COC2)CCN1c1ccc(Nc2cc(-c3cc(F)cc(N4CCn5c(cc6c5CC(C)(C)C6)C4=O)c3C(=O)O)cn(C)c2=O)nc1 [Compound 128, 2-(7,7-dimethyl-4-oxo-1,2,6,8-tetrahydrocyclopenta[3,4]pyrrolo[3,5-b]pyrazin-3-yl)-4-fluoro-6-[1-methyl-5-[[5-[(2S)-2-methyl-4-(oxetan-3-yl)piperazin-1-yl]-2-pyridyl]amino]-6-oxo-3-pyridyl]benzoic acid] | – | 5000 |
| CNC(=O)c1c(-c2cc(Nc3ccc(N4CCN(C5COC5)C[C@@H]4C)cn3)c(=O)n(C)c2)cc(F)cc1N1CCn2c(cc3c2CC(C)(C)C3)C1=O [Compound 129, 2-(7,7-dimethyl-4-oxo-1,2,6,8-tetrahydrocyclopenta[3,4]pyrrolo[3,5-b]pyrazin-3-yl)-4-fluoro-N-methyl-6-[1-methyl-5-[[5-[(2S)-2-methyl-4-(oxetan-3-yl)piperazin-1-yl]-2-pyridyl]amino]-6-oxo-3-pyridyl]benzamide] | – | 472 |
| C[C@H]1CN(C2COC2)CCN1c1ccc(Nc2cc(-c3cccc(-n4ncc5c6c(sc5c4=O)CCCC6)c3CO)cn(C)c2=O)nc1 [Compound 130, 3-[2-(hydroxymethyl)-3-[1-methyl-5-[[5-[(2S)-2-methyl-4-(oxetan-3-yl)piperazin-1-yl]-2-pyridyl]amino]-6-oxo-3-pyridyl]phenyl]-6,7,8,9-tetrahydrobenzothiopheno[2,3-d]pyridazin-4-one] | – | 35.4 |
| C[C@H]1CN(C2COC2)CCN1c1ccc(Nc2cc(-c3cc(F)cc(-n4ncc5c6c(sc5c4=O)CC(C)(C)C6)c3CO)cn(C)c2=O)nc1 [Compound 131, 3-[5-fluoro-2-(hydroxymethyl)-3-[1-methyl-5-[[5-[(2S)-2-methyl-4-(oxetan-3-yl)piperazin-1-yl]-2-pyridyl]amino]-6-oxo-3-pyridyl]phenyl]-7,7-dimethyl-6,8-dihydrocyclopenta[3,4]thieno[1,3-d]pyridazin-4-one] | – | 34.9 |
